This note sets out measurements from paper PMC6692352, “DF2726A, a new IL-8 signalling inhibitor, is able to counteract chemotherapy-induced neuropathic pain” (Scientific Reports, 2019).

The subject of one data set is p-FAK. The data set is described as follows: p-FAK western blotting in F11-derived neurons. Conditions: 24 h. The class given is cell-based.
Data set [1] relates to 55 targets among GCPRs, ion channels, enzymes and transporters. The following applies: binding panel tested at 10 µM; ion channels up to 30 µM.
Experimental: target activities towards a panel of GPCRs, enzymes, ion channels, transporters and nuclear
water/HBSS to a final concentration of 10 μM. Cell membrane homogenates (48 μg protein) were
incubated for 60 min at 22°C with the respective reference compound in the absence or presence of
the test compound in a buffer containing 50 mM Tris-HCl (pH 7.4), 2 mM MgCl2 and 1 mM
EDTA. After incubation, the samples were filtered rapidly under vacuum through glass fiber filters
(GF/B, Packard Instruments, Meriden, CT, USA) presoaked with 0.3% polyethylenimine (PEI) and
rinsed several times with ice-cold 50 mM Tris-HCl using a 96-sample cell harvester (Unifilter,
Packard Instruments). The filters were dried, then counted for radioactivity in a scintillation counter
(Topcount, Packard Instruments) using a scintillation cocktail (Microscint-O, Packard Instruments).
The results were expressed as the percentage inhibition of the control radioligand-specific binding.
The compounds were tested at a single concentration of 10 µM in triplicate.
Tested targets were as follows:
GPCR: A2A (agonist radioligand), α1A (antagonist radioligand), α2A (antagonist radioligand), β1
(agonist radioligand), β2 (agonist radioligand), BK1 (antagonist and agonist radioligand), BK2
(antagonist and agonist radioligand), CB1 (antagonist and agonist radioligand), CB2 (antagonist and […]
A further data set relates to IENFs (PGP9.5). The data set is described as follows: Oxaliplatin-induced loss of IENFs, PGP9.5 immunofluorescence of paw sections. Type of data set: in vivo, male Wistar rats. Conditions: 30 mg/kg os, rat paw sections. The procedure: Animals were sacrificed and a biopsy (3 mm) was taken from pad of the right hind paw. Biopsies were immediately placed in Zamboni’s fixative, where they were left at 4 °C. Tissues were then transferred to 20% sucrose for at least 24 h and used for immunohistochemistry analysis. Specimens were frozen in Optimal Cutting Temperature compound (OCT, Sakura Finetek Inc, CA, USA) and sliced into 20 μm thick serial coronal sections by cryostat AMES LAB-TEK (Westmont, Illinois, USA). […]
Five slices were examined for each animal. For each slide, 4 fields were counted. For quantitative evaluation of IL-8/CINC-1 (the homolog of IL-8 in rat) and […], photomicrographs for each condition were analysed by ImageJ software (National Institutes of Health, Bethesda, MD, USA) as previously described. […] The signal was first measured on the tissue in an area devoid of signal at visual inspection and assumed as background; the threshold was then set at 1.5 times the background and the surface area and mean grey intensity were measured for all areas above the threshold. […]

The target in the next data set is CYP 2C9 (Homo sapiens, UniProt P11712). The data set is described as follows: CYP inhibition 2C9. The class given is in vitro ADME. From the text:
Table 1 Physicochemical and in Vitro ADME Properties of DF2726A. | column: DF2726A

Data set [2] relates to paclitaxel-induced mechanical and cold allodynia. Kind of data set: Paclitaxel-induced mechanical and cold allodynia. Conditions: 30 mg/kg os for 14 days, rats. The class given is in vivo. As to the method: 5/8 inch needles; Chemil s.r.l., Padova, Italy) at 0.08, 0.5, 1, 3, 6, 12, 24, 36 and 48 h for i.v. dosing and at 0.25, 0.5, 1, 3, 6, 12, 24, 36 and 48 h for oral dosing. After each blood withdrawal, the catheters were washed with 0.15-0.2 mL of sterile physiological saline and filled with 0.03 mL of heparin saline solution (0.25 U.I/mL). The heparinized blood was immediately centrifuged (8000 RPM for 5 min at approximately 4°C) and the resultant plasma transferred into vials and stored at - 20°C until analysis. DF2726A concentrations were quantified by HLPC-MS/MS using a chromatographic method with a lower limit of quantitation of 1 ng·mL -1. Non-compartmental analysis (Gibaldi and Perrier, 1982) were used to calculate the pharmacokinetic parameters using a MKModel by Nick Holford software Version 4, (Biosoft, Ferguson, MO 63 135, USA).
DF2726A was administered at a dose of 30 mg/2ml/kg/os for 14 consecutive days starting 3 days before paclitaxel administration and continuing for 11 days after the first administration of […]
Induction of neuropathy by paclitaxel
Rats received 4 once daily intraperitoneal (i.p.) injections of paclitaxel (Tocris, Italy) (2 mg/kg/day i.p.; cumulative dose of 8 mg/kg i.p.) or vehicle (saline, 1ml/kg/day i.p.), administered on alternate days (days 0, 2, 4, and 6) as descr ibed 4. […]
Pac+Saline group. […] Data are expressed as […]

In a further data set the test system is PI3K and p-Akt. Kind of data set: PI3K and p-Akt western blotting in F11-derived neurons. The class given is cell-based. The following applies: DF2726A 1 µM + oxaliplatin 20 µM, 24 h. The procedure:
Following neuronal differentiation, neurons were treated for 24 h with DF2726A (1 μM final concentration), oxaliplatin (Sigma-Aldrich; 20 µM final concentration), or the combination of the two molecules.
Control and treated cells were collected and lysed in ice-cold RIPA buffer (PBS pH 7.4 containing 0.5% sodium deoxycolate, 1% Igepal, 0.1% SDS, 5 mM EDTA, 1% protease and phosphatase inhibitor cocktails; Sigma-Aldrich) as described in[22],[33]. Protein lysates (30 μg) were separated on 8–12% SDS-polyacrilamide gel and electroblotted onto polyvinyldifluoride membrane (PVDF; Sigma-Aldrich). Nonspecific binding sites were blocked by 5% non-fat dry milk (Bio-Rad Laboratories, Hercules, CA, USA) in Tris buffered saline (TBS: 20 mM Tris- HCl, pH 7.4, containing 150 mM NaCl) for 30 min at RT. […] The relative densities of immunoreactive bands were determined and normalized HRP-conjugated β-actin, using ImageJ software. […]
(Immunoblotting shows a protein as a band on a membrane.)

Molecules are shown by their SMILES. Where only a bound is given, the exact number is not on record here.

Chain of CYP 2C9 (P11712 whole entry): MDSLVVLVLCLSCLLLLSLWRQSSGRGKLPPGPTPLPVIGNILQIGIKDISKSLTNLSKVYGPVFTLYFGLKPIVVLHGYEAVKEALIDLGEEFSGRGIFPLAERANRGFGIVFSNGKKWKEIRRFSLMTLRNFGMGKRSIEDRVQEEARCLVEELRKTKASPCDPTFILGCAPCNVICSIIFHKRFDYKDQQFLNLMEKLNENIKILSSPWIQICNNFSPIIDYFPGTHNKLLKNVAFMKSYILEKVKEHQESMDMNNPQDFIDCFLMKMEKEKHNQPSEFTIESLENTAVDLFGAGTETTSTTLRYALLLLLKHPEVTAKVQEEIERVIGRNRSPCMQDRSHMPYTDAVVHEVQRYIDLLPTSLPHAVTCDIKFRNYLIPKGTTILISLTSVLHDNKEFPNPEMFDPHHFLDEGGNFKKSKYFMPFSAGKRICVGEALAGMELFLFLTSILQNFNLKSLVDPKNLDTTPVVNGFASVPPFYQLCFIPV

For the compound `CC(C)(C(=O)O)c1ccc(Nc2nc(C(F)(F)F)cs2)cc1` [DF2726A], the “p-FAK levels, oxaliplatin-treated neurons” value in the data set on p-FAK (DF2726A 1 µM + oxaliplatin 20 µM) was “decreased in the presence of DF2726A”. In the data set on p-FAK (DF2726A + paclitaxel 10 nM), the “p-FAK levels, paclitaxel-treated neurons” value is “decreased in the presence of DF2726A”. The “Selectivity for 55 targets in counterscreens” value in data set [1] is on record as > 100 fold. For the same compound, the “Effect on oxaliplatin-induced loss of IENFs (PGP9.5)” value in the data set with IENFs (PGP9.5) is reported as “preventing the loss of epidermal innervation”. Further, the IC50 (as a rule, the midpoint of a concentration-inhibition curve) against CYP 2C9 was > 30 µM. The “Effect on paclitaxel-induced mechanical and cold allodynia” value in data set [2] is recorded as “prevented”. In addition, in the data set with PI3K and p-Akt, the “PI3K and p-Akt protein levels, oxaliplatin-treated neurons” value is “comparable to those of control cells”.
